# Measurements: patent EP0994713B1, “USE OF A 7alpha-METHYL-17alpha-ETHYNYL-ESTRANE DERIVATIVE FOR THE TREATMENT OF ATHEROSCLEROSIS” (Akzo Nobel N.V., priority 1997, dated 1998)
# Experiments:
# Type in all cases: in vivo, New Zealand White rabbits
# [1] = test system: female ovariectomized rabbits; experiment: Plasma cholesterol levels, cholesterol fed rabbit model; conditions: for Mean plasma cholesterol exposure: cholesterol diet, OVX, 20 weeks; for plasma cholesterol levels (in words): Example 2: Org OD14 2 and 6 mg, E2 4 mg orally daily, E2D 150 µg s.c. weekly
# Protocol: (§1) The model is considered relevant to the human atherosclerotic process, because the cellular events occurring during the development of the atherosclerotic lesions during the atherogenic diet are similar to those observed in different stages of atherosclerotic processes in coronary arteries.
# (§2) An experiment was performed with 7 groups of sexually mature, virgin female New Zealand White rabbits (Harlan, Zeist, The Netherlands), age 7-9 months and weighing approximately 3 kg (number of […] per group: 13-14). During the acclimatization period the rabbits were fed a diet of standard commercial rabbit chow LKK20 (Hope Farms, Woerden, The Netherlands). Three weeks prior to the start of the experiment the animals were anaesthetized and underwent bilateral ovariectomy (OVX) or were sham operated. After three weeks, at the start of the experiment, the rabbits were randomized over the treatment groups.
# (§3) The animals were randomly allocated into 7 experimental groups using a randomized block design. […] One group was fed the standard rabbit chow (LKK20). Food intake was restricted to 80 grams daily.
# (§4) Groups 1, 2 and 3 were on a daily placebo treatment. Groups 4-5 were treated with 7α-methyl-17α-ethynyl-17β-hydroxy-estra-5(10)-en-3-one (OD-14; tibolone; 6 or 2 mg daily); group 6 with 17β-estradiol (4 mg daily). Group 7 was on treatment with 17β-estradiol decanoate (150 µg in 1 ml arachis oil injected subcutaneously once a week).
# (§5) During the experiment blood samples were drawn out of the central ear artery after sedation with Hypnorm (0.1 ml i.m.) (Janssen Pharmaceutics, Beerse, Belgium) before the daily treatment, at week 4,8,12,16 and 20, to monitor the plasma cholesterol levels and to measure, at week 17, plasma estradiol levels and plasma tibolone levels. Twenty weeks after the start of the experiment animals were anaesthetized by an i.m. injection of Hypnorm (0.5 ml/kg). After blood sampling the rabbits were killed by exsanguination and the aortic arch, uterus and carotid artery removed for further analyses.
# (§6) Three weeks prior to the start of the experiment the animals were ovariectomized. At the start of the experiment the carotid artery was de-endothelialised using the air-drying technique. The normal rabbit chow was replaced by the atherogenic diet except for the control group which received during the experiment the normal rabbit chow.
# (§7) Group 5 was on treatment with 17β-estradiol decanoate (300 µg in 1 ml arachis oil injected subcutaneously once a week).
# [2] = test system: female ovariectomized rabbits; experiment: Overall atherosclerotic lesion formation, cholesterol fed rabbit model; conditions: Example 3: Org OD14 0.6 mg orally daily; estradiol decanoate 300 µg s.c. weekly
# Protocol: as §1
# (§8) In addition to example 2 an additional experiment was performed with two lower doses of Org OD14 and a higher dose of estradiol decanoate. […] The procedures were identical to those in example 2.
# as §6
# (§9) The treatments (table II) of group 1, 2, 3 and 4 were daily administered orally as a tablet, prepared as in example 1. The doses of Org OD14 per tablet, however, were 0.6 mg and 0.15 mg respectively. Group 5 was on treatment with 17β-estradiol decanoate (300 µg in 1 ml arachis oil injected subcutaneously once a week). Twenty weeks after the start of the experiment was ended in the same manner as described in example 2.
# In example 3 we tested Org OD14 at two lower doses (0.6 and 0.15 mg orally once daily) and estradiol decanoate at a higher dose (300 µg s.c. once weekly). […]
# [3] = test system: female ovariectomized rabbits; experiment: Fatty streaks in the aortic arch (Sudan Red, image analysis); conditions: cholesterol diet, OVX, necropsy at 20 weeks
# Protocol: as §1
# as §2, with “groups. In all animals de-endothelialisation of a segment of the left carotid artery was applied by using the air-drying technique (Fishman, J.A. et al., "Endothelial regeneration in the rat carotid artery and the significance of endothelial denudation in the pathogenesis of myointimal thickening", Lab. Invest. 1975, 32, 339-351; and Lafont, A. et al., "Restenosis and experimental angioplasty: Intimal, medial and adventitial changes associated with constructive remodeling", Circulation Research, 1995, 76, 996-1002)” for “groups.”
# (§10) The animals were randomly allocated into 7 experimental groups using a randomized block design. The groups were fed an atherogenic diet (commercial rabbit chow (LKK20) enriched with 0.4 grams cholesterol, 3.75 grams coconut oil and 3.75 grams peanut oil per 100 grams). One group was fed the standard rabbit chow (LKK20). Food intake was restricted to 80 grams daily.
# as §4, with “The treatments (Table I) were daily administered orally as a tablet, prepared as in Example 1. Groups 1,” for “Groups 1,”
# as §5, §8, §6, §9
# The aortic arch was dissected free, opened longitudinally and fixed in 2% paraformaldehyde. The tissue was then stained for lipids using 0.3% (w/v) Sudan Red. Colour photographs were taken of all segments. […]
# [4] = test system: female ovariectomized rabbits; experiment: Vessel wall cholesterol measurement in the aortic arch; conditions: for Cholesterol level in aortic arch: cholesterol diet, OVX, necropsy at 20 weeks
# Protocol: as §1, §2, §3, §4, §5, §6, §7
# The amount of protein in the tissue was determined by the method of Lowry.
# [5] = test system: female ovariectomized rabbits; experiment: Intimal thickening (advanced lesions) in carotid artery after de-endothelialisation; conditions: for Advanced lesions in carotid artery: intimal surface: cholesterol diet, OVX, necropsy at 20 weeks; for advanced lesion formation following mechanical de-endothelisation (in words): Example 2: Org OD14 2 and 6 mg, E2 4 mg orally daily, E2D 150 µg s.c. weekly
# Protocol: as §1
# as §2, with “groups. In all animals de-endothelialisation of a segment of the left carotid artery was applied by using the air-drying technique (Fishman, J.A. et al., "Endothelial regeneration in the rat carotid artery and the significance of endothelial denudation in the pathogenesis of myointimal thickening", Lab. Invest. 1975, 32, 339-351; and Lafont, A. et al., "Restenosis and experimental angioplasty: Intimal, medial and adventitial changes associated with constructive remodeling", Circulation Research, 1995, 76, 996-1002)” for “groups.”
# as §10
# as §4, with “The treatments (Table I) were daily administered orally as a tablet, prepared as in Example 1. Groups 1,” for “Groups 1,”
# as §5, with “analyses. […]” for “analyses.”
# The left (airdried) carotid artery was dissected and fixed in 2% paraformaldehyde containing 6.8% glucose. The right carotid artery was used as comparison. After fixation the tissue was divided in blocks with a length of 2 mm and embedded in paraffin (Paraplast plus®, Sherwood Medical Co, St. Louis, USA) using an automated tissue processor (Hypercenter XP, Shandon).
# To measure intimal thickening (using image analysis) a specific staining method and a belonging image analysis application have been developed.
# Measurements were performed on 2 µm transverse sections which were treated with elastase (Serva Feinbiochemica Gmbh, Heidelberg, Germany) prior to elastin staining with Lawson solution (Boom, Meppel, the Netherlands) and light green (Sigma). Subsequently sections were airdried and mounted in Pertex (Leica Gmbh, Nussloch, Germany).
# For morphological study both methylene blue/Azur II and hemotoxylin/eosin stained (2 µm) transverse sections were used. Smooth muscle cells and macrophages were detected with respectively α-actin antibodies (Sigma) and anti-macrophage antibodies (RAM11, DAKO, Glostrup, Denmark). […]
# [6] = test system: female ovariectomized rabbits; experiment: Uterus weight (estrogenic activity), cholesterol fed rabbit model; conditions: for Uterus weight per 100 grams body weight: cholesterol diet, OVX, necropsy at 20 weeks
# Protocol: as §1
# as §2, with “groups. In all animals de-endothelialisation of a segment of the left carotid artery was applied by using the air-drying technique (Fishman, J.A. et al., "Endothelial regeneration in the rat carotid artery and the significance of endothelial denudation in the pathogenesis of myointimal thickening", Lab. Invest. 1975, 32, 339-351; and Lafont, A. et al., "Restenosis and experimental angioplasty: Intimal, medial and adventitial changes associated with constructive remodeling", Circulation Research, 1995, 76, 996-1002)” for “groups.”
# as §10
# as §4, with “The treatments (Table I) were daily administered orally as a tablet, prepared as in Example 1. Groups 1,” for “Groups 1,”
# as §5, §8, §6, §9
# (§11) After 20 weeks of diet and of daily treatment, necropsy was performed to determine the accumulation of cholesterol and fatty streaks in the aortic arch and the advanced lesions in the carotid artery. […]
# [7] = Body weight at necropsy, cholesterol fed rabbit model; conditions: cholesterol diet, OVX, necropsy at 20 weeks
# Protocol: as §1
# as §2, with “groups. In all animals de-endothelialisation of a segment of the left carotid artery was applied by using the air-drying technique (Fishman, J.A. et al., "Endothelial regeneration in the rat carotid artery and the significance of endothelial denudation in the pathogenesis of myointimal thickening", Lab. Invest. 1975, 32, 339-351; and Lafont, A. et al., "Restenosis and experimental angioplasty: Intimal, medial and adventitial changes associated with constructive remodeling", Circulation Research, 1995, 76, 996-1002)” for “groups.”
# as §10
# as §4, with “The treatments (Table I) were daily administered orally as a tablet, prepared as in Example 1. Groups 1,” for “Groups 1,”
# as §5, §8, §6, §9, §11
# [8] = Example 2, Group 7: 150 µg subcutaneously once a week
# [9] = Example 3: 300 µg subcutaneously once weekly
# [10] = Example 2, Group 6: 4 mg orally daily
structure (smiles),measurement,setting,value
"CCCCCCCCCC(=O)O[C@H]1CC[C@H]2[C@@H]3CCc4cc(O)ccc4[C@H]3CC[C@]12C [Estradiol decanoate, 17β-estradiol decanoate, reference compound]",Mean plasma cholesterol exposure,[1]; [8],30.0 ± 3.7 mmol/L/day
same,plasma cholesterol levels (in words),[1],did not affect plasma cholesterol levels
same,Mean plasma cholesterol exposure,[1]; [9],23.0 ± 2.0 mmol/L/day
same,atherosclerotic lesion formation (in words),[2],still only partially inhibited
same,Fatty streak in aortic arch,[3]; [8],28.1 ± 4.1 % of arcus covered
same,Fatty streak in aortic arch,[3]; [9],14.2 ± 3.2 % of arcus covered
same,Cholesterol level in aortic arch,[4]; [8],318 ± 58 nmol/mg protein
same,reduction of cholesterol accumulation in the aortic arch,"[4]; Example 2: 150 µg s.c. once a week, versus placebo",46%
same,Cholesterol level in aortic arch,[4]; [9],225 ± 69 nmol/mg protein
same,Advanced lesions in carotid artery: intimal surface,[5]; [8],0.23 ± 0.06 * mm^2
same,Histology of the lesions,"[5]; Example 2, carotid artery, placebo on cholesterol diet: smooth muscle cells and foam cells",the lesions still consisted of smooth muscle cells and foam cells
same,advanced lesion formation following mechanical de-endothelisation (in words),[5],reduced advanced lesion formation
same,Advanced lesions in carotid artery: intimal surface,[5]; [9],0.18 ± 0.02 * mm^2
same,Uterus weight per 100 grams body weight,[6]; [8],0.37 ±0.04 per 100 grams body weight
same,increase of uterus weight,"[6]; Example 3, text: estradiol decanoate 300 µg s.c. once weekly, versus placebo 0.054",835%
same,uterus weight,"[6]; Example 3, text: estradiol decanoate 300 µg s.c. once weekly, placebo 0.054",0.505 grams per 100 grams body weigh
same,Uterus weight per 100 grams body weight,[6]; [9],0.505 ±0.075 per 100 grams body weight
same,Body weight,[7]; [8],2973 ± 52 grams
same,Body weight,[7]; [9],3093 ± 60 grams
"C[C@]12CC[C@@H]3c4ccc(O)cc4CC[C@H]3[C@@H]1CCC2O (stereo partly drawn) [Estradiol, estra-1,3,5 (10)-triene-3,17-diol, reference compound]",Mean plasma cholesterol exposure,[1]; [10],27.7 ± 2.8 mmol/L/day
same,plasma cholesterol levels (in words),[1],did not affect plasma cholesterol levels
same,Fatty streak in aortic arch,[3]; [10],25.5 ± 5.2 % of arcus covered
same,Cholesterol level in aortic arch,[4]; [10],521 ± 99 nmol/mg protein
same,cholesterol accumulation in the aortic arch (in words),"[4]; Example 2: Org OD14 2 and 6 mg, E2 4 mg orally daily",did not lead to a reduction in cholesterol accumulation
same,Advanced lesions in carotid artery: intimal surface,[5]; [10],0.30 ± 0.06 mm^2
same,advanced lesion formation following mechanical de-endothelisation (in words),[5],had no effect on advanced lesion formation
same,Uterus weight per 100 grams body weight,[6]; [10],0.31 ±0.02 per 100 grams body weight
